Holding throughout (type): biochemical
One experiment has as its target Pim-3 (Homo sapiens (Human), UniProt Q86V86). The experiment in a line: Pim-3 kinase assay. The following applies: 1 mM ATP, biotin-labeled BAD peptide substrate; read-out: Pim3 IC50. Here is the method: (§1) Pim-1 and Pim-3 kinase assays-20 μL reactions were run in white 384 well polystyrene plates dotted with 0.8 μL compound/DMSO in the assay buffer (50 mM Tris, pH 7.5, 0.01% Tween-20, 5 mM MgCl2, 0.01% BSA, 5 mM DTT), containing […] Biotin-labeled BAD peptide substrate (AnaSpec 62269), 1 mM ATP, and 2.5 pM (Pim-1, Invitrogen PV3503) or 1.25 pM (Pim-3, Millipore 14-738) enzyme for 1 h at 25° C. Reactions were stopped by addition of 10 μL STOP Buffer (150 mM Tris, pH=7.5, 150 mM NaCl, 75 mM EDTA, 0.01% Tween-20, 0.3% BSA) supplemented with Phospho-Bad (Ser112) Antibody (Cell Signaling 9291) diluted 666-fold, and Streptavidin donor beads (PerkinElmer 6760002) along with Protein-A acceptor beads (PerkinElmer 6760137) at 15 μg/mL each. Supplementation of the STOP buffer with beads and stopping the reactions were done under reduced light. Prior to the stopping reactions STOP buffer with beads was pre-incubated for 1 h in the dark at room temperature. After stopping the reactions, plates were incubated for 1 h in the dark at room temperature before reading on a PHERAstar FS plate reader (BMG Labtech) under reduced light.

Another experiment has as its target Pim-1 (Homo sapiens (Human), UniProt P11309). Nature of the experiment: Pim-1 kinase assay. To be noted: 1 mM ATP, biotin-labeled BAD peptide substrate; read-out: Pim1 IC50. Here is the method: as §1
Another experiment has as its target Pim-2 (Homo sapiens (Human), UniProt Q9P1W9). Nature of the experiment: Pim-2 kinase assay. To be noted: 1 mM ATP, fluorescein-labeled CREBtide peptide substrate; read-out: Pim2 IC50. As for the experimental part: Pim-2 kinase assay-20 μL reactions were run in white 384 well polystyrene plates dotted with 0.8 μL compound/DMSO in the assay buffer (50 mM Tris, pH 7.5, 0.01% Tween-20, 5 mM MgCl2, 0.01% BSA, 5 mM DTT), containing 0.05 μm Fluorescein-labeled CREBtide peptide substrate (Invitrogen PV3508), 1 mM ATP, and 1 nM enzyme (Invitrogen PV3649) for 2 h at 25° C. Reactions were stopped by addition of 10 μL TR-FRET Dilution Buffer (Invitrogen PV3574) with 30 mM EDTA and 1.5 nM LanthaScreen Tb-CREB pSer133 antibody (Invitrogen PV3566). After 30 min. incubation at room temperature, plates were read on a PHERAstar FS plate reader (BMG Labtech).

The IC50 is the concentration that inhibits the measured activity by half.

Sequence of Pim-1 (P11309 whole entry): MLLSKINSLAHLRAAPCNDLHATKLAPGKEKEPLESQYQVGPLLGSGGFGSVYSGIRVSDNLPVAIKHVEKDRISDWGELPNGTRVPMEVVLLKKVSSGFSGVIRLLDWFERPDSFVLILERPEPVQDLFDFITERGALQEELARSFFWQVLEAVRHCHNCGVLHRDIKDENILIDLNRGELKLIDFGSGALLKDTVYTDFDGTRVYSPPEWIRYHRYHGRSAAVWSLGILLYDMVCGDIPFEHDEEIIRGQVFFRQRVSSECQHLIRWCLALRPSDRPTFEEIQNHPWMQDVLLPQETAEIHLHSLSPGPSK
Sequence of Pim-2 (Q9P1W9 whole entry): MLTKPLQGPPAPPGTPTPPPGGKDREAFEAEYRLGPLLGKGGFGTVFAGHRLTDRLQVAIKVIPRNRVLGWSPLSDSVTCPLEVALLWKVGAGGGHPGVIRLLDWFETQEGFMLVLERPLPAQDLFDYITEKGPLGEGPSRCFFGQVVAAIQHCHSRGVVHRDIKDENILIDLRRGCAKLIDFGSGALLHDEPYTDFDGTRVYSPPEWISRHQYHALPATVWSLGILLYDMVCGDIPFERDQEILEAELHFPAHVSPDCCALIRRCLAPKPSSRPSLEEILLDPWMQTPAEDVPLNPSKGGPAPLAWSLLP

As to `C[C@H]1CN(c2ccncc2NC(=O)c2c(N)oc3cc(CCCF)cnc23)C[C@@H](N)[C@@H]1O` [Example 137, 2-Amino-N-(4-((3R,4R,5S)-3-amino-4-hydroxy-5-methylpiperidin-1-yl)pyridin-3-yl)-6-(3-fluoropropyl)furo[3,2-b]pyridine-3-carboxamide], the half-inhibitory concentration (IC50) on Pim-3, on Pim-1 and on Pim-2 was at most 10 nM in each case.

As to `Nc1sc2cc(C3CCOCC3)cnc2c1C(=O)Nc1cnccc1N1CCC[C@H](N)C1` [Example 35, 2-Amino-N-{4-[(3S)-3-aminopiperidin-1-yl]pyridin-3-yl}-6-(tetrahydro-2H-pyran-4-yl)thieno[3,2-b]pyridine-3-carboxamide], the concentration for half-maximal inhibition (IC50) at Pim-3 is at most 10 nM; on Pim-1, at most 10 nM; on Pim-2 it was 10 to 100 nM.

For the molecule `COC1CCN(Cc2cnc3c(C(=O)Nc4cnccc4N4C[C@@H](N)C[C@@H](C(F)(F)F)C4)c(N)oc3c2)C1` (stereo partly drawn) [Example 103, 2-Amino-N-{4-[(3S,5R)-3-amino-5-(trifluoromethyl)piperidin-1-yl]pyridin-3-yl}-6-[(3-methoxypyrrolidin-1-yl)methyl]furo[3,2-b]pyridine-3-carboxamide], the half-inhibitory concentration (IC50) was at most 10 nM on Pim-3, at most 10 nM on Pim-1 and 10 to 100 nM at Pim-2.

As to `Nc1sc2cccnc2c1C(=O)Nc1cnccc1N1CCCNCC1` [Example 8, 2-Amino-N-[4-(1,4-diazepan-1-yl)pyridin-3-yl]thieno[3,2-b]pyridine-3-carboxamide], the half-inhibitory concentration (IC50) at Pim-3 was above 40 nM; on Pim-1, at most 10 nM; at Pim-2 it was above 2000 nM.

With `Nc1sc2cccnc2c1C(=O)Nc1cnccc1N1CCC[C@@H](N)C1` [Example 7, 2-Amino-N-{4-[(3R)-3-aminopiperidin-1-yl]pyridin-3-yl}thieno[3,2-b]pyridine-3-carboxamide], the IC50 at Pim-3 is above 40 nM; on Pim-1, at most 10 nM; on Pim-2, above 2000 nM.

As to `C[C@@H]1C[C@H](N)C[C@H](c2ccncc2NC(=O)c2c(N)oc3cc(C4CC4)cnc23)C1` [Example 133, 2-Amino-N-{4-[(1R,3S,5S)-3-amino-5-methylcyclohexyl]pyridin-3-yl}-6-cyclopropylfuro[3,2-b]pyridine-3-carboxamide], the half-inhibitory concentration (IC50) at Pim-3, at Pim-1 and on Pim-2 was at most 10 nM in each case.

Regarding `Nc1oc2cc(F)cnc2c1C(=O)Nc1cnccc1N1CCC[C@H](N)C1` [Example 52, 2-amino-N-{4-[(3S)-3-aminopiperidin-1-yl]pyridin-3-yl}-6-fluoro-furo[3,2-b]pyridine-3-carboxamide], the results for the IC50 at Pim-3, on Pim-1 and on Pim-2 were at most 10 nM, at most 10 nM and 100 to 1000 nM, respectively.

With `CCCc1cnc2c(C(=O)Nc3cnccc3N3C[C@@H](N)C[C@@H](C(F)(F)F)C3)c(N)oc2c1` [Example 69, 2-Amino-N-{4-[(3S,5R)-3-amino-5-(trifluoromethyl)piperidin-1-yl]pyridin-3-yl}-6-propylfuro[3,2-b]pyridine-3-carboxamide], the concentration for half-maximal inhibition (IC50) at Pim-3, at Pim-1 and at Pim-2 was at most 10 nM in each case.

On to `C[C@@H]1C[C@H](N)CN(c2ccncc2NC(=O)c2c(N)oc3cc(-c4cnn(C)c4)cnc23)C1` [Example 110, 2-Amino-N-{4-[(3S,5R)-3-amino-5-methylpiperidin-1-yl]pyridin-3-yl}-6-(1-methyl-1H-pyrazol-4-yl)furo[3,2-b]pyridine-3-carboxamide], for which the IC50 was at most 10 nM at Pim-3, at most 10 nM on Pim-1 and 10 to 100 nM at Pim-2.

With `CCCc1cnc2c(C(=O)Nc3cnccc3N3C[C@@H](N)[C@@](C)(O)[C@@H](C)C3)c(N)oc2c1` [Example 86, 2-Amino-N-{4-[(3R,4S,5S)-3-amino-4-hydroxy-4,5-dimethylpiperidin-1-yl]pyridin-3-yl}-6-propylfuro[3,2-b]pyridine-3-carboxamide], the 50% inhibitory concentration (IC50) on Pim-3, at Pim-1 and at Pim-2 was at most 10 nM in each case.

With `CCCc1cnc2c(C(=O)Nc3cnccc3N3CCC[C@H](N)C3)c(N)oc2c1` [Example 51, 2-amino-N-{4-[(3S)-3-aminopiperidin-1-yl]pyridin-3-yl}-6-(propyl)furo[3,2-b]pyridine-3-carboxamide], the IC50 at Pim-3 was at most 10 nM; at Pim-1, at most 10 nM; at Pim-2 it was 10 to 100 nM.

`COc1ccnc2c(C(=O)Nc3cnccc3N3CCC[C@H](N)C3)c(N)sc12` [Example 16, 2-Amino-N-{4-[(3S)-3-aminopiperidin-1-yl]pyridin-3-yl}-7-methoxythieno[3,2-b]pyridine-3-carboxamide]: the figures for the concentration for half-maximal inhibition (IC50) on Pim-3, on Pim-1 and at Pim-2 were at most 10 nM, at most 10 nM and 100 to 1000 nM, respectively.

With `CN1CCC(c2cnc3c(C(=O)Nc4cnccc4N4C[C@@H](N)C[C@@H](C(F)(F)F)C4)c(N)oc3c2)CC1` [Example 93, 2-Amino-N-{4-[(3S,5R)-3-amino-5-(trifluoromethyl)piperidin-1-yl]pyridin-3-yl}-6-(1-methylpiperidin-4-yl)furo[3,2-b]pyridine-3-carboxamide], the IC50 on Pim-3 was at most 10 nM; at Pim-1, at most 10 nM; on Pim-2 it was 10 to 100 nM.

Take `Cn1ncc(NC(=O)c2c(N)sc3cccnc23)c1N1CCC[C@@H](N)C1` [Example 3, 2-Amino-N-{5-[(3R)-3-aminopiperidin-1-yl]-1-methyl-1H-pyrazol-4-yl}thieno[3,2-b]pyridine-3-carboxamide]: the figures for the 50% inhibitory concentration (IC50) on Pim-3, on Pim-1 and on Pim-2 were at most 10 nM, at most 10 nM and above 2000 nM, respectively.

Consider `Cn1ncc(NC(=O)c2c(N)sc3cccnc23)c1N1CCCC(N)CC1` (stereo not drawn) [Example 1, 2-Amino-N-[5-(4-aminoazepan-1-yl)-1-methyl-1H-pyrazol-4-yl]thieno[3,2-b]pyridine-3-carboxamide], for which the figures for the half-maximal inhibitory concentration (IC50) at Pim-3, on Pim-1 and on Pim-2 were at most 10 nM, at most 10 nM and 100 to 1000 nM, respectively.

In the case of `Nc1oc2cccnc2c1C(=O)Nc1cnccc1N1C[C@@H](N)C[C@@H](C(F)(F)F)C1` [Example 60, 2-amino-N-{4-[(3S,5R)-3-amino-5-(trifluoromethyl)piperidin-1-yl]pyridin-3-yl}-furo[3,2-b]pyridine-3-carboxamide], the IC50 at Pim-3 is at most 10 nM; at Pim-1, at most 10 nM; on Pim-2 it was 10 to 100 nM.

With `Nc1oc2cc(Cl)cnc2c1C(=O)Nc1cnccc1N1C[C@@H](N)C[C@@H](C(F)(F)F)C1` [Example 62, 2-amino-N-{4-[(3S,5R)-3-amino-5-(trifluoromethyl)piperidin-1-yl]pyridin-3-yl}-6-chlorofuro[3,2-b]pyridine-3-carboxamide], the half-inhibitory concentration (IC50) at Pim-3 was at most 10 nM; on Pim-1, at most 10 nM; on Pim-2, 10 to 100 nM.

Take `Cc1cnc2c(C(=O)Nc3cnccc3N3C[C@H](C)C[C@H](N)C3)c(N)oc2c1` [Example 116, 2-Amino-N-{4-[(3S,5R)-3-amino-5-methylpiperidin-1-yl]pyridin-3-yl}-6-methylfuro[3,2-b]pyridine-3-carboxamide]: the half-inhibitory concentration (IC50) on Pim-3 was at most 10 nM; on Pim-1 it was at most 10 nM; on Pim-2, 10 to 100 nM.

As for `CCCc1cnc2c(C(=O)Nc3cnccc3N3C[C@@H](N)[C@H](O)[C@@H](C)C3)c(N)oc2c1` [Example 67, 2-Amino-N-{4-[(3R,4R,5S)-3-amino-4-hydroxy-5-methylpiperidin-1-yl]pyridin-3-yl}-6-propylfuro[3,2-b]pyridine-3-carboxamide], the IC50 at Pim-3, on Pim-1 and at Pim-2 was at most 10 nM throughout.

With `Cn1ncc(NC(=O)c2c(N)oc3c(Cl)ccnc23)c1N1CCCC(N)CC1` (stereo not drawn) [Example 58, 2-amino-N-[5-(4-aminoazepan-1-yl)-1-methyl-1H-pyrazol-4-yl]-7-chlorofuro[3,2-b]pyridine-3-carboxamide], the IC50 on Pim-3 is at most 10 nM; on Pim-1 it was at most 10 nM; on Pim-2 it was 100 to 1000 nM.

Consider `CCc1cnc2c(C(=O)Nc3cnccc3N3CCC[C@H](N)C3)c(N)oc2c1` [Example 47, 2-Amino-N-{4-[(3S)-3-aminopiperidin-1-yl]pyridin-3-yl}-6-ethylfuro[3,2-b]pyridine-3-carboxamide], for which the IC50 at Pim-3 is at most 10 nM; on Pim-1, at most 10 nM; at Pim-2, 10 to 100 nM.

Values taken from US10000507B2, “Furo- and thieno-pyridine carboxamide compounds useful as pim kinase inhibitors” (Incyte Corporation, priority 2013, dated 2018).
